These results are taken from paper PMC8545574, “Antioxidant, Anti-Inflammatory, and Antidiabetic Activities of Bioactive Compounds from the Fruits of Livistona chinensis Based on Network Pharmacology Prediction” (Oxidative Medicine and Cellular Longevity, 2021).

Values after ≈ are worked out from the molar mass of the structure shown. Values joined by “and” are separate entries in the source; they are usually repeats but may differ in a detail not shown here. Equal entries are not always repeated. Where two headings read alike, the source gives them in different places.

A short description of assay [1]: DPPH free radical scavenging assay. As to conditions: mean ± SD, n = 3. The format is biochemical. The method, then: The DPPH free radical scavenging assay was performed according to a previously reported method. A series of different concentrations of the tested samples and the positive control ascorbic acid were mixed with freshly prepared DPPH (0.2 mM) in a 96-well microplate with a total volume of 150 μL. After leaving the mixture to react in the dark for 30 min, its absorbance was determined at 517 nm. All of the wells with only samples were set as blanks to obtain an absorbance value, which was subtracted from the test sample readings. The percentage inhibition (%) for each sample was calculated by the following formula: (1) Inhibition %=Absblank−Abssamples/Absblank×100%, where Absblank and Abssamples correspond to the absorbance units (at 517 nm) of DPPH solutions incubated in the absence and presence of the tested samples.
Background: Loss of DPPH colour is used to gauge radical scavenging.

A further assay has as its target T1, PTP1B (Homo sapiens, UniProt P18031).
T1 sequence (P18031 1-321 limits assumed): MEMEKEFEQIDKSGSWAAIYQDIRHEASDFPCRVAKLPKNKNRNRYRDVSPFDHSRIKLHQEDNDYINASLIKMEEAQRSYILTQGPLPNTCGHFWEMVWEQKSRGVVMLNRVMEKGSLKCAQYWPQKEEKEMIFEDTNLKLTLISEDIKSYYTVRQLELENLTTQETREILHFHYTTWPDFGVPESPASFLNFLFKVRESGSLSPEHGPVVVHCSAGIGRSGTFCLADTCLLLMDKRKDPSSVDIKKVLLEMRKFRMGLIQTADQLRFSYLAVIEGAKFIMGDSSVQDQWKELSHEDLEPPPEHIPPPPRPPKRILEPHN
Nature of the assay: PTP1B inhibitory assay (p-NPP substrate).

The nature of assay [2]: ABTS radical cation scavenging assay. The class given is biochemical. As to conditions: mean ± SD, n = 3. The method, then: The ABTS radical cation (ABTS·+) was prepared by reacting ABTS with potassium persulfate following the method previously described. The ABTS radical cation (ABTS·+) was prepared by mixing with 2.45 mM potassium persulfate and equal volumes of an ABTS solution (7 mM), and then, they were permitted to react in the darkness at room temperature for 12–16 h. Thereafter, the ABTS reagent was diluted with methyl alcohol until reaching an absorbance of 0.70 ± 0.02 units at 734 nm. In a 96-well microplate, ABTS reagent (190 μL in each well) and samples (10 μL in each well) were incubated at room temperature for 20 min. To determine the antioxidant capacity by the ABTS method, the experimental conditions and protocol were identical to those of the DPPH assay. The only difference was that the absorbance was measured at 734 nm.

Assay [3] addresses α-Glucosidase (from Baker's yeast). Nature of the assay: α-Glucosidase inhibitory assay (p-NPG substrate). The settings on record: read-out: IC50 α-Glucosidase inhibitory effect; mean ± SD, n = 3.
Description: The extract, fractions, and compounds were dissolved in 5% DMSO and then diluted with phosphate buffer. Briefly, 80 μL PBS, 20 μL of varying concentrations of sample solutions, and 20 μL α-glucosidase solution (1.3 U/mL) were mixed and incubated in 96-well plates at 37°C for 5 min. The reaction started when 20 μL p-nitrophenyl-α-D-glucopyranoside (2.5 mM) was added to the plate. The reaction mixture was incubated for 15 min at 37°C, and then, 80 μL Na2CO3 (0.2 M) was added to stop the reaction.
The test system of assay [4] is LPS-stimulated NO release in RAW 264.7 cells. Nature of the assay: Nitrite (Griess) assay of LPS-stimulated NO release. The class given is cell-based. How it is done:
The level of NO production was tested by measuring the nitrite level in the culture medium with the Griess method. Cells were seeded at a density of 2 × 10^4 cells per well in 96-well plates. […] A microplate reader was employed for the optical density measurement at 570 nm.

Setting [5] is: Mus musculus, RAW264.7, LPS (1 μg/mL)-stimulated RAW 264.7 cells, mean ± SD, n = 3, read-out: IC50 NO production anti-inflammatory effect.

Description for PTP1B: PTP1B (10 μg/mL stock solution) was dissolved in 10 mM citrate buffer (pH 6.0), 1 mM dithiothreitol (DTT), and 1 mM N, N, N′, N′-ethylenediaminetetraacetate (EDTA). 20.0 μL PTP1B stock solution and 60 μL citrate buffer were added to each well of a 96-well plastic plate.

On to `COc1cc([C@@H](O)[C@H](CO)Oc2c(OC)cc([C@@H]3OC[C@@H]4[C@H]3CO[C@H]4c3ccc(O)c(OC)c3)cc2OC)ccc1O` (single isomer, unassigned) [Compound 33], for which the IC50 (in general, the concentration that inhibits the measured activity by half) in assay [1] stood at 66.67 ± 0.52 µM; on PTP1B (read-out: IC50 PTP1B inhibitory effect, mean ± SD, n = 3), 62.1 ± 0.73 µM; in assay [2], 33.4 ± 0.45 µM; in assay [3], 50.9 ± 1.78 µM; in assay [4] (setting [5]), 47.4 ± 0.85 µM.

For `O=C1O[C@H]([C@@H](O)CO)C(O)=C1O` [Ascorbic acid, reference compound], the “IC50 DPPH scavenging activity” value in assay [1] (extract and fractions) was found to be 6.18 ± 0.18 µg/mL (≈ 35.1 µM). Further, the IC50 in assay [1] came out at 35.1 ± 1.02 µM; in assay [2], 50.9 ± 1.25 µM. The “IC50 ABTS scavenging activity” value in assay [2] (extract and fractions) was determined as 8.96 ± 0.22 µg/mL (≈ 50.9 µM).

Take `Oc1ccc([C@H]2Oc3cc(O)cc(O)c3C[C@H]2O)cc1` [Compound 2, (-)-epiafzelechin]: the IC50 in assay [1] came out at 43.4 ± 0.46 µM; on PTP1B it was 39.25 ± 0.14 µM; in assay [2] it was 15 ± 0.11 µM; in assay [3] it was 62.5 ± 1.92 µM.

Take `Oc1cc(O)c2c(c1)O[C@H](c1ccc(O)c(O)c1)[C@@H](O)C2` [Compound 3, (+)-catechin]: the IC50 in assay [1] was 26.4 ± 0.39 µM; against PTP1B, 91.78 ± 0.68 µM; in assay [2] it was 11.29 ± 0.09 µM; in assay [3], 89 ± 1.95 µM.

`Oc1cc(O)c2c(c1)O[C@H](c1ccc(O)c(O)c1)[C@H](O)C2` [Compound 4, (-)-epicatechin]: the IC50 in assay [1] turned out to be 32 ± 0.37 µM; against PTP1B, 38.66 ± 0.21 µM; in assay [2] it was 13.46 ± 0.09 µM; in assay [3], 24 ± 0.38 µM.

Turning to `COc1cc(O)c2c(=O)cc(-c3ccc(O)cc3)oc2c1` [Compound 7, genkwanin], the IC50 is 78.76 ± 0.61 µM in assay [1]; 30.2 ± 0.45 µM against PTP1B; 63.11 ± 0.24 µM in assay [2]; over 100 µM in assay [3]; 70.79 ± 0.67 µM in assay [4] (setting [5]).

In the case of `COc1cc(-c2cc(=O)c3c(O)cc(O)cc3o2)cc(OC)c1O` [Compound 8, tricin], the IC50 in assay [1] is 61.25 ± 0.31 µM; against PTP1B it was over 100 µM; in assay [2], 24.1 ± 0.32 µM; in assay [3], over 100 µM.

As for `O=c1cc(-c2ccc(O)cc2)oc2c([C@@H]3O[C@H](CO)[C@@H](O)[C@H](O)[C@H]3O)c(O)cc(O)c12` [Compound 9, vitexin], the IC50 in assay [1] worked out at 92.26 ± 0.32 µM; against PTP1B, 30.6 ± 0.48 µM; in assay [2] it was 85.04 ± 0.24 µM; in assay [3], 98.6 ± 1.2 µM.

Regarding `COc1cc(-c2cc(=O)c3c(O)cc(O[C@@H]4O[C@H](CO)[C@@H](O)[C@H](O)[C@H]4O)cc3o2)cc(OC)c1O` [Compound 10, tricin-7-O-β-D-glucoside], the IC50 in assay [1] is over 100 µM; in assay [2], 91.1 ± 1.1 µM; in assay [3] it was over 100 µM; in assay [4] (Mus musculus, RAW264.7, read-out: IC50 NO production anti-inflammatory effect), 65.8 ± 1.47 µM.

For `COc1cc(-c2oc3cc(O)cc(O)c3c(=O)c2O[C@@H]2O[C@H](CO)[C@@H](O)[C@H](O)[C@H]2O)ccc1O` [Compound 11, isorhamnetin-3-O-β-D-glucoside], the results for the IC50 in assay [1], in assay [2] and in assay [3] were 21.8 ± 0.26 µM, 36.71 ± 0.33 µM and over 100 µM, respectively.

For the compound `C[C@@H]1O[C@@H](O[C@H]2C(=O)c3c(O)cc(O)cc3O[C@@H]2c2ccc(O)c(O)c2)[C@H](O)[C@H](O)[C@H]1O` [Compound 12, astilbin], the IC50 is 46.46 ± 0.4 µM in assay [1], over 100 µM on PTP1B, 43.1 ± 0.29 µM in assay [2] and over 100 µM in assay [3].

With `COc1cc(C2Oc3c(OC)cc(CCCO)cc3C2CO)ccc1O` [Compound 13, (7S,8R)-dihydrodehydrodiconiferyl alcohol], the IC50 in assay [1] was 87.78 ± 0.74 µM; at PTP1B, over 100 µM; in assay [2] it was 24.6 ± 0.31 µM; in assay [3], 88.62 ± 0.49 µM; in assay [4] (setting [5]), 76.69 ± 0.51 µM.

Turning to `COc1cc(C2Oc3c(OC)cc(CCCO)cc3C2CO)cc(OC)c1O` [Compound 14, (7S,8R)-5-methoxydihydrodehydroconiferyl alcohol], the IC50 was 60.3 ± 0.16 µM in assay [1]; over 100 µM at PTP1B; 45.13 ± 0.41 µM in assay [2]; 62.2 ± 1.03 µM in assay [3]; 70 ± 5.33 µM in assay [4] (setting [5]).

As to `COc1cc(C2Oc3c(OC)cc(CCCO)cc3C2CO)ccc1OC(CO)CO` [Compound 15, (7S,8R)-9,9′-dihydroxyl-3,3′-dimethoxyl-4-O-glycerol-7,8-dihydrobenzofuran-1′-propanolneoligan], the IC50 in assay [1] was over 100 µM; against PTP1B, over 100 µM; in assay [2], over 100 µM; in assay [3], over 100 µM; in assay [4] (setting [5]), 13.2 ± 0.36 µM.

Take `COc1cc(C2Oc3c(OC)cc(CCCO)cc3C2CO)ccc1OC1OC(CO)C(O)C(O)C1O` [Compound 16, (7S,8R)-dihydrodehydrodiconiferyl alcohol-4-O-β-D-glucopyranoside]: the IC50 in assay [1] was over 100 µM; at PTP1B it was over 100 µM; in assay [2], over 100 µM; in assay [3] it was over 100 µM; in assay [4] (setting [5]), 36.7 ± 0.8 µM.

On to `COc1cc([C@@H](O)[C@H](CO)Oc2c(OC)cc(CCCO)cc2OC)ccc1O[C@@H]1O[C@H](CO)[C@@H](O)[C@H](O)[C@H]1O` [Compound 24, erythro-(7R,8S)-7,9,9-trihydroxy-3,3,5-trimethoxy-8-O-4-neolignan-4-O-β-D-glucopyranoside], for which the IC50 (in assay [1]; at PTP1B; in assay [2]) was over 100 µM each time.

For the compound `COc1cc(CCCO)cc(OC)c1OC(CO)CO` [Compound 26, 2-[4-(3-hydroxy-propyl)-2,6-dimethoxyphenoxy]-propane-1,3-diol], the figures for the IC50 in assay [1], in assay [2] and in assay [3] were over 100 µM, over 100 µM and 56.52 ± 0.45 µM, respectively.

Turning to `COc1cc([C@@H]2OC[C@H]3C(=O)OC[C@H]32)ccc1O` [Compound 27, salicifoliol], the IC50 in assay [1] was over 100 µM; in assay [2], 41.98 ± 0.33 µM; in assay [3], over 100 µM; in assay [4] (setting [5]), 66.86 ± 0.51 µM.

Regarding `COc1cc([C@@H]2OC(=O)[C@@H]3[C@H]2CO[C@H]3c2ccc(O)c(OC)c2)ccc1O` [Compound 28, 4-ketopinoresinol], the IC50 in assay [1] is over 100 µM; in assay [2], 20.4 ± 0.23 µM; in assay [3] it was over 100 µM; in assay [4] (setting [5]), 14.8 ± 1.2 µM.

In the case of `COc1cc([C@H]2OC[C@H]3[C@@H]2CO[C@@H]3c2cc(OC)c(O)c(OC)c2)cc(OC)c1O` [Compound 31, (+)-syringaresinol], the IC50 in assay [1] was determined as 65.4 ± 1.48 µM; in assay [2], 23.7 ± 0.25 µM; in assay [3] it was 49.1 ± 1.1 µM; in assay [4] (setting [5]), 48.98 ± 0.39 µM.

Regarding `COc1cc(C(=O)O)ccc1O` [Compound 37, vanillic acid], the IC50 is over 100 µM in assay [1] and 88.32 ± 0.12 µM in assay [2].

As to `O=C(O)c1ccc(O)c(O)c1` [Compound 38, protocatechuic acid], the IC50 in assay [1] came out at 33.1 ± 0.79 µM; against PTP1B it was 44.75 ± 0.12 µM; in assay [2], 63.25 ± 0.51 µM.

Regarding `COc1ccc(C(=O)O)cc1O` [Compound 41, isovanillic acid], the IC50 was over 100 µM in assay [1], 91.1 ± 0.38 µM against PTP1B and 76.06 ± 0.48 µM in assay [2].

Take `COC(=O)c1ccc(O)c(O)c1` [Compound 42, protocatechuic acid methyl ester]: the IC50 in assay [1] worked out at 63.32 ± 0.41 µM; against PTP1B, 63 ± 0.65 µM; in assay [2], 83.21 ± 0.53 µM.

With `COc1cc(O)c2c(c1)C(=O)c1cc(C)cc(O)c1C2=O` [Compound 45, physcion], the IC50 was over 100 µM in assay [1], 24.75 ± 0.18 µM on PTP1B, over 100 µM in assay [2] and 30 ± 0.57 µM in assay [4] (setting [5]).

On to `COc1ccc2c(c1)c(CC(=O)O)c(C)n2C(=O)c1ccc(Cl)cc1` [Indomethacin, reference compound], for which the IC50 in assay [4] (setting [5]) is 8.01 µg/mL and 22.4 µM.

Consider (+)-pinoresinol [Compound 29], for which the IC50 in assay [1] is 77.4 ± 2.98 µM; in assay [2] it was 18.49 ± 0.09 µM; in assay [3], 52.1 ± 0.93 µM; in assay [4] (LPS (1 μg/mL)-stimulated RAW 264.7 cells, mean ± SD, n = 3, read-out: IC50 NO production anti-inflammatory effect), 69.94 ± 0.31 µM.
